Starred links: 1 amine or outer side, 2 acyl side, 3 side chain; linkers in the order of their positions; H or OH if unused. Non-standard residues stand in square brackets, D forms with d. Primed or numbered codes have the meaning given here. *: point of attachment. Tyr(2,6Cl2-Z) = 2,6-dichlorobenzyl-L-tyrosine, O=C([C@H](Cc1ccc(OCc2c(Cl)cccc2Cl)cc1)N[*:1])[*:2]; Glu(Bzl) = L-glutamic acid benzyl ester, O=C(CC[C@H](N[*:1])C(=O)[*:2])OCc1ccccc1; diphenyl phosphonate = C-terminal diphenyl phosphonate (Arg^P(OPh)2); BODIPY(FL) = CC1=CC(C)=[N+]2C1=Cc1ccc(CCC(=O)*)n1[B-]2(F)F; 1Nal = N[C@@H](Cc1cccc2ccccc12)C(=O)O; ACC = NC(=O)Cc1cc(=O)oc2cc(N*)ccc12; Igl = N[C@H](C(=O)O)C1Cc2ccccc2C1; hArg = N=C(N)NCCCC[C@H](N)C(=O)O; Agp = N=C(N)NC[C@H](N)C(=O)O; PEG4′ = PEG linker, 4 units; Nle = CCCC[C@H](N)C(=O)O; Dab = NCC[C@H](N)C(=O)O; Cbz = O=C(OCc1ccccc1)*; Cy3 = Cy3 fluorophore; Ahx = NCCCCCC(=O)O
Key:
Type in all cases: biochemical
[1] = target: T1, APC (Homo sapiens, UniProt P04070); experiment: Inhibition kinetics (kobs/I) under pseudo first-order conditions, APC; settings: 10 nM APC, substrate 154 μM SMA5, pH 7.4, 37° C.
Procedure: (§1) The Kobs/l parameters towards APC, fIIa, fXa, and fXIa were measured under pseudo first-order conditions (Table 1). The assay buffer contained 20 mM Tris-base, 150 mM NaCl, 5 mM CaCl2), pH 7.4. Each ABP or inhibitor was serially diluted until the seventh well to obtain the concentrations ranging from 308 nM to 100 µM, depending on the ABP/inhibitor used. The assay conditions were as follows: 20 μL of selected substrate (154 μM SMA5 for APC, 100 μM SMA4 for fIIa, 50 μM SMII18 for fXa, and 100 μM SMX1 for fXIa) was added into the wells containing 20 μL of seven different ABP/inhibitor concentrations. Next, 60 μL of APC, fIIa, fXa, or fXIa (at the concentration of 10 nM) preincubated for 15 min at 37° C. was added, and the fluorescence increase over time was measured (λex=355 nm, λem=460 nm) for 30 min. The Kobs/l values were calculated using GraphPad Prism and Microsoft Excel software as described previously.

[2] = target: fIIa (Homo sapiens, UniProt P00734); experiment: Inhibition kinetics (kobs/I) under pseudo first-order conditions, fIIa; settings: 10 nM fIIa, substrate 100 μM SMA4, pH 7.4, 37° C.
Procedure: as §1

[3] = target: T1, APC; experiment: Kinetic parameters (kcat/KM) of fluorogenic substrates, APC; settings: APC versus other coagulation factors
Procedure: The Kcat/KM parameters towards APC, thrombin and fXa were measured using the procedure described in Modrzycka et al. Chemical Science, 2022, 13, 6813-6829.

[4] = target: T1, APC; experiment: Screen of APC tetrapeptide fluorogenic substrates; settings: for activity and selectivity for APC in the substrate screen: out of substrates SMA1-SMA26
Procedure: (§2) To minimize potential cross reactivity, a detailed kinetic analysis of the four APC-selective substrates was performed against the other proteases.

[5] = test system: other coagulation factors; experiment: Substrate hydrolysis by other coagulation factors
Procedure: as §2

[6] = target: fXa (Homo sapiens, UniProt P00742); experiment: Inhibition kinetics (kobs/I) under pseudo first-order conditions, fXa; settings: 10 nM fXa, substrate 50 μM SMII18, pH 7.4, 37° C.
Procedure: as §1

[7] = target: fXIa (Homo sapiens, UniProt P03951); experiment: Inhibition kinetics (kobs/I) under pseudo first-order conditions, fXIa; settings: 10 nM fXIa, substrate 100 μM SMX1, pH 7.4, 37° C.
Procedure: as §1

T1 sequence (P04070 212-461 limits assumed): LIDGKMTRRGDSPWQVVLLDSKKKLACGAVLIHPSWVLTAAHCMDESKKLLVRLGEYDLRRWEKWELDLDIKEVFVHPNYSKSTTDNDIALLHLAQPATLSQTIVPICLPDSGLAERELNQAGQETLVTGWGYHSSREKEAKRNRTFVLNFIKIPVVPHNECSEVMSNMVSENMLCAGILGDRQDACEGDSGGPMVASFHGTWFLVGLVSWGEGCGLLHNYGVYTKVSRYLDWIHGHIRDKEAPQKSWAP
T1 sequence (P04070 43-197 partner limits assumed): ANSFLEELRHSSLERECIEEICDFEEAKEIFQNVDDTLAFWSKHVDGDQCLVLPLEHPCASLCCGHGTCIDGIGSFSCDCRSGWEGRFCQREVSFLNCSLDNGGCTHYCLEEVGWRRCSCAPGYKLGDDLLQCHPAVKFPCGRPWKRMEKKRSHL
fXa, sequence (P00742 235-488 limits assumed): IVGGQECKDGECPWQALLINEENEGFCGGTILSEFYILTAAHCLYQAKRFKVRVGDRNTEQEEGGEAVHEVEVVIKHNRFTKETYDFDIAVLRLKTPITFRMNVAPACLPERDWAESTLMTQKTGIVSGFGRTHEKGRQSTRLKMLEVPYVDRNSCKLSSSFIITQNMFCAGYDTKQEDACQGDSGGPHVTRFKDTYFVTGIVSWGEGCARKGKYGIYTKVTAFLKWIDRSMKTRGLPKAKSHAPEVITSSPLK
fXa, sequence (P00742 41-179 partner limits assumed): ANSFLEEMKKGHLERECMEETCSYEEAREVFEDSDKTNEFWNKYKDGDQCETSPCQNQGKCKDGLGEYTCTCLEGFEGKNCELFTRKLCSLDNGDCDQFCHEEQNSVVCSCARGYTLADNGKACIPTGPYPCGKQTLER
fXIa, sequence (P03951 388-625 limits assumed): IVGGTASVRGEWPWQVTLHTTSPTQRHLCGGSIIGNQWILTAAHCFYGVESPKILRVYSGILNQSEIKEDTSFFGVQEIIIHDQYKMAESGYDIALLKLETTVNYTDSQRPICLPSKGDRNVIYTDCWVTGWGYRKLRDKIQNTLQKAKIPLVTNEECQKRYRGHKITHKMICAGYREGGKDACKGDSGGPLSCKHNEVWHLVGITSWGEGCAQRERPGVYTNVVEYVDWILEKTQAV
fXIa, sequence (P03951 19-387 partner limits assumed): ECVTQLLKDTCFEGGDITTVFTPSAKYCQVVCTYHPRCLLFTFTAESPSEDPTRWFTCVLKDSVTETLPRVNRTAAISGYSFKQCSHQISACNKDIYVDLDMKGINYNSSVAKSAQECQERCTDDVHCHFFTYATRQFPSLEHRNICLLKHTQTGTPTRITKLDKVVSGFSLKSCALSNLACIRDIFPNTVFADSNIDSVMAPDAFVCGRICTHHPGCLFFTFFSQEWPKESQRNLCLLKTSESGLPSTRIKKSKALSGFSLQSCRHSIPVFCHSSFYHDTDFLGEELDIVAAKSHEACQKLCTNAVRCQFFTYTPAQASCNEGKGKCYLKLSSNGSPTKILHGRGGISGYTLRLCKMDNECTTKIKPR

With Ac-Lys-Dab(Z)-Lys-Arg^P(OPh)2 [I-SMA17] the “kobs/I APC” value [1] was 1,980 ± 20 M^−1s^−1.
For “Ac-hCha-Cys(MeBzl)-Pip-Arg^P(OPh)2 [I-SMII22]”, the “kobs/I fIIa” value [2] was 209,000 ± 13,800 M^−1s^−1.
With “Cy5-6-Ahx-Lys-Dab(Z)-Lys-Arg^P(OPh)2 [P-SMA172]” the “kobs/I APC” value [1] was 2,250 ± 170 M^−1s^−1.
For Ac-K[Dab](Cbz)KR-{ACC} [SMA 17], the Kcat/KM selectivity ratio [3] was “very high”, the “activity and selectivity for APC in the substrate screen” value (“activity and selectivity for APC” below) [4] was “showed the most activity and selectivity for APC” and the “hydrolysis when tested with other coagulation factors” value [5] was “almost nondetectable”.
For Ac-K[Dab](Cbz)[Igl]R-{ACC} [SMA 5], the “activity and selectivity for APC” value [4] was “showed the most activity and selectivity for APC” and the “cleavage efficiency compared to the best natural substrate (SMA54)” value ([4]; relative to SMA54) was “approximately 50 fold”.
In the case of “Cy3-6-Ahx-DPro-hArg-1-Nal-Arg^P(OPh)2 ({Cy3-Ahx}-[dP][hArg][1Nal]R-{diphenyl phosphonate}) [P-SMX152]”, the “kobs/I fXa” value [6] was 1,800 ± 100 M^−1s^−1.
In the case of “Cy7-6-Ahx-hCha-Cys(MeBzl)-Pip-Arg^P(OPh)2 [P-SMII222]”, the “kobs/I fIIa” value [2] was 3,500 ± 300 M^−1s^−1.
With “Bodipy-PEG(4)-Tyr(2,6Cl2-Z)-Nle-Glu(Bzl)-Arg^P(OPh)2 ({BODIPY(FL)-PEG4′}-[Tyr(2,6Cl2-Z)][Nle][Glu(Bzl)]R-{diphenyl phosphonate}) [P-SMXI52]” the “kobs/I fXIa” value [7] was 3,120 ± 100 M^−1s^−1.
“Ac-Lys-Agp-Igl-Arg-ACC (Ac-K[Agp][Igl]R-{ACC}; SMILES CC(=O)N[C@@H](CCCCN)C(=O)N[C@@H](CNC(=N)N)C(=O)N[C@H](C(=O)N[C@@H](CCCNC(=N)N)C(=O)Nc1ccc2c(CC(N)=O)cc(=O)oc2c1)C1Cc2ccccc2C1) [SMA 6, fluorogenic substrate for APC]” was tested, and the “activity and selectivity for APC” value [4] was “showed the most activity and selectivity for APC”.
“Ac-Tyr(2,6Cl2-Z)-Nle-Glu(Bzl)-Arg^P(OPh)2 (Ac-[Tyr(2,6Cl2-Z)][Nle][Glu(Bzl)]R-{diphenyl phosphonate}) [I-SMXI5]” was tested, and the “kobs/I fXIa” value [7] was 54,700 ± 2,800 M^−1s^−1.
For “Ac-DPro-hArg-1-Nal-Arg^P(OPh)2 (Ac-[dP][hArg][1Nal]R-{diphenyl phosphonate}) [I-SMX15]”, the “kobs/I fXa” value [6] was 1,200 ± 100 M^−1s^−1.

From patent US20250208137A1, “COMPOUNDS FOR THE DETECTION AND INHIBITION OF COAGULATION PROTEASES” (Politechnika Wroclawska, priority 2022, published 2025)
